Source: paper PMC6858373 (Scientific Reports, 2019)
pIC50: −log10 of the molar value. Read-outs that look alike come from different tables or passages of the source.

Tests used:
[1] = biological target: T1, FGF14:Nav1.6 C-tail complex (Homo sapiens, UniProt Q92915+Q9UQD0); experiment: Split-luciferase complementation assay (LCA) in Clone V double stable HEK293 cells; type: cell-based; details: for pIC50: estimated, 8-point dose response 0.25-30 µM, n = 4 per concentration, library compounds, read-out: IC50
T1 construct: polymerase chain reaction (PCR) amplification of the FGF14 open reading frame (nt 1–855); C-terminal fragment of Nav1.6 (amino acids 1763–1976) fused with CD4ΔC-tail (amino acids 1–395); expressed in transfected cells

[2] = biological target: full-length P. pyralis luciferase (Photinus pyralis, UniProt P08659, K549A/L550V/N119G/N50D/S548I); type: cell-based
[3] = CC_NCI screening, LCA luminescence, biological replicate Set 1, normalized to on-plate 0.3% DMSO controls (n=16 per plate)
[4] = CC_NCI screening, LCA luminescence, biological replicate Set 2, normalized to on-plate 0.3% DMSO controls (n=16 per plate)
[5] = CC_NCI screening, LCA, biological replicate Set 1, normalized to on-plate 0.3% DMSO controls
[6] = CC_NCI screening, LCA, biological replicate Set 2, normalized to on-plate 0.3% DMSO controls
[7] = CC_NCI screening, average of Set 1 and Set 2, normalized to 0.3% DMSO controls
[8] = CC_NCI screening, full-length luciferase counter-screen luminescence, normalized to on-plate 0.3% DMSO controls
[9] = CC_NCI screening, full-length luciferase counter-screen, normalized to on-plate 0.3% DMSO controls
[10] = CC_NCI screening, biological replicate Set 1, normalized to on-plate 0.3% DMSO controls
[11] = CC_NCI screening, biological replicate Set 1, normalized to on-plate 0.3% DMSO controls (n=16 per plate)
[12] = CC_NCI screening, biological replicate Set 2, normalized to on-plate 0.3% DMSO controls
[13] = CC_NCI screening, biological replicate Set 2, normalized to on-plate 0.3% DMSO controls (n=16 per plate)
[14] = average of Set 1 and Set 2, normalized to 0.3% DMSO controls
[15] = CC_NCI screening, normalized to on-plate 0.3% DMSO controls
[16] = 30 µM, 384-well, average of primary screening (n = 2), vs on-plate 0.3% DMSO

Chain of full-length P. pyralis luciferase (P08659 whole entry N50D/N119G/S548I/K549A/L550V, looked up): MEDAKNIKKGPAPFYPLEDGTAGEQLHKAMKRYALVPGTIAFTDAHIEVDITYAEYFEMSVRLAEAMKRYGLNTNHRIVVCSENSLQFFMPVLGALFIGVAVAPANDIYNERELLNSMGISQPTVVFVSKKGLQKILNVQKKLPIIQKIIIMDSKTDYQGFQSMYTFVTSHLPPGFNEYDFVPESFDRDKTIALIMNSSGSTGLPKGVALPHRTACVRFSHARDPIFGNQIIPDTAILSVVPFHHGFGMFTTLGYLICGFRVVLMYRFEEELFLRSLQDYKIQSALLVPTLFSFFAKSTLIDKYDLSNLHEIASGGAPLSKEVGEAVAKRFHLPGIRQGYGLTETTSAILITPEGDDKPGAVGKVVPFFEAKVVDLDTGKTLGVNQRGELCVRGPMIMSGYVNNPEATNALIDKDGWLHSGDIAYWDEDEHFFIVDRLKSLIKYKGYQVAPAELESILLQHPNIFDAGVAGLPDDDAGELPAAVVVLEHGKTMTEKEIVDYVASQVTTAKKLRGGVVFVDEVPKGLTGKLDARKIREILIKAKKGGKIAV
T1 sequence (Q92915 1-252 isoform Q92915-2): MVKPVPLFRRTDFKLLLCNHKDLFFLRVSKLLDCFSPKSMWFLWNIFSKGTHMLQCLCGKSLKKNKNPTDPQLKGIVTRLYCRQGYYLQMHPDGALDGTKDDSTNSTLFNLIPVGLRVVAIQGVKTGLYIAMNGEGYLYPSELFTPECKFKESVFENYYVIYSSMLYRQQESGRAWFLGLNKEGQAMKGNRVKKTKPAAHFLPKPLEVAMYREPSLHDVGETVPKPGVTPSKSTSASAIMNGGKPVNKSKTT
T1 sequence (Q9UQD0 1763-1976 limits assumed): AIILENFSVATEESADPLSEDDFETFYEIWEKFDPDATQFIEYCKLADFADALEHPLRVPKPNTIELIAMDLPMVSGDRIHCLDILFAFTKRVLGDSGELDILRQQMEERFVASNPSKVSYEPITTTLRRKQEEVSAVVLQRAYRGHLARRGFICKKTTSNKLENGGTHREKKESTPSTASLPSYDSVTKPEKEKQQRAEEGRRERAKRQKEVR

| SMILES | Split Luciferase Assay % Lum Set 1 [1, 3] | Split Luciferase Assay %Lum Set 2 [1, 4] | Split Luciferase Assay Z-score Set 1 [1, 5] | Split Luciferase Assay Z-score Set 2 [1, 6] | Split Luciferase Assay %Lum Avg [1, 7] | Luciferase Assay % Lum [2, 8] | Luciferase Assay Z-score [2, 9] | Toxicity Assay % Fluor (Clone V cells) | Toxicity Assay Z-score (Clone V cells) | Toxicity Assay % Fluor (Clone V cells; human, 16 h, 30 µM) | Toxicity Assay Z-score (Clone V cells; human, 16 h, 30 µM) | other results |
| --- | --- | --- | --- | --- | --- | --- | --- | --- | --- | --- | --- | --- |
| O=C(O)C(=O)O.[NH-][C@@H]1CCCC[C@H]1[NH-].[Pt+2] [Oxaliplatin] | 115.56% | 119.64% | 1.26 | 1.60 | 117.60% | 102.65% | 0.34 | 90.53% | -1.32 |  |  |  |
| CN(C)Cc1c(C(=O)NCCOc2ccc(C(=O)NO)cc2)oc2ccccc12 [PCI-24781] | 118.82% | 98.83% | 1.52 | -0.10 | 108.83% | 91.15% | -1.13 |  |  | 93.46% | -0.91 |  |
| COc1cccc(-c2cc(=O)c3ccccc3o2)c1N [PD 98059] | 103.60% | 106.11% | 0.29 | 0.50 | 104.86% | 90.17% | -1.26 | 88.34% | -1.63 |  |  |  |
| COc1cc2ncnc(Nc3cccc(Br)c3)c2cc1OC [PD 153035] | 143.82% | 121.72% |  |  | 132.77% |  |  |  |  | 98.57% | -0.20 | Split Luciferase Assay Z-score Set 1 [1]: 3.54; Split Luciferase Assay Z-score Set 2 [1]: 1.77; Luciferase Assay % Lum [2]: 83.75%; Luciferase Assay Z-score [2]: -2.08 |
| CC(C)[C@H](NS(=O)(=O)c1ccc(-c2ccc(Br)cc2)cc1)C(=O)O [PD 166793] |  |  |  |  |  |  |  |  |  |  |  | Split Luciferase Assay Z-score Set 1 [1, 10]: 0.38; Split Luciferase Assay % Lum Set 1 [1, 11]: 104.69%; Split Luciferase Assay Z-score Set 2 [1, 12]: -1.11; Split Luciferase Assay %Lum Set 2 [1, 13]: 86.35%; Split Luciferase Assay %Lum Avg [1, 14]: 95.52%; Luciferase Assay % Lum (full-length luciferase counter-screen) [2, 15]: 99.99%; Luciferase Assay Z-score (full-length luciferase counter-screen) [2, 15]: 0.00; Toxicity Assay % Fluor (CTB cell viability fluorescence) (Clone V cells): 105.53%; Toxicity Assay Z-score (CTB cell viability) (Clone V cells): 0.77 |
| Cc1cc(Nc2ncc3cc(-c4c(Cl)cccc4Cl)c(=O)n(C)c3n2)ccc1F [PD 180970] | 120.99% | 116.51% | 1.70 | 1.34 | 118.75% | 100.96% | 0.12 | 102.30% | 0.32 |  |  |  |
| OCCn1cc(-c2cnc3nnn(Cc4ccc5ncccc5c4)c3n2)cn1 [PF-04217903] | 90.56% | 78.02% | -0.76 | -1.79 | 84.29% | 111.09% | 1.42 | 99.86% | -0.02 |  |  |  |
| Cc1ccc([N+](=O)[O-])cc1S(=O)(=O)N(C)/N=C/c1cnc2ccc(Br)cn12 [PIK 75, reference compound] |  |  |  |  |  |  |  |  |  |  |  | Z-score (LCA primary screening) [1, 16]: −5.01; Split Luciferase Assay Z-score Set 1 [1, 10]: -6.21; Split Luciferase Assay % Lum Set 1 [1, 11]: 23.16%; IMin (% Luminescence) ([1]; antagonists, Clone V cells, 384-well, normalized to DMSO): 38.11 % Luminescence; Split Luciferase Assay %Lum Avg [1, 14]: 38.11%; pIC50 [1]: 5.79; Luciferase Assay % Lum (full-length luciferase counter-screen) [2, 15]: 87.68%; Luciferase Assay Z-score (full-length luciferase counter-screen) [2, 15]: -1.58; Toxicity Assay % Fluor (CTB cell viability fluorescence) (Clone V cells): 101.60%; Toxicity Assay Z-score (CTB cell viability) (Clone V cells): 0.22 |
| COc1ccc2c(c1OC)N=C(NC(=O)c1cccnc1)N1CCN=C21 [PIK 90] |  |  |  |  |  |  |  |  |  |  |  | Split Luciferase Assay Z-score Set 1 [1, 10]: -0.15; Split Luciferase Assay % Lum Set 1 [1, 11]: 98.17%; Split Luciferase Assay Z-score Set 2 [1, 12]: -1.11; Split Luciferase Assay %Lum Set 2 [1, 13]: 86.35%; Split Luciferase Assay %Lum Avg [1, 14]: 92.26%; Luciferase Assay % Lum (full-length luciferase counter-screen) [2, 15]: 102.65%; Luciferase Assay Z-score (full-length luciferase counter-screen) [2, 15]: 0.34; Toxicity Assay % Fluor (CTB cell viability fluorescence) (Clone V cells): 101.53%; Toxicity Assay Z-score (CTB cell viability) (Clone V cells): 0.21 |
| CO[C@@H]1[C@H](N(C)C(=O)c2ccccc2)C[C@H]2O[C@]1(C)n1c3ccccc3c3c4c(c5c6ccccc6n2c5c31)C(=O)NC4 [PKC412] | 54.68% | 67.62% | -3.66 | -2.63 | 61.15% | 89.50% | -1.34 |  |  | 83.94% | -2.25 |  |
| CCCS(=O)(=O)Nc1ccc(F)c(C(=O)c2c[nH]c3ncc(Cl)cc23)c1F [PLX4720, reference compound] |  |  |  |  |  |  |  |  |  | 93.90% | -0.85 | IMin (% Luminescence) [1]: 36.71 % Luminescence; Split Luciferase Assay % Lum Set 1 [1]: 30.77%; Split Luciferase Assay %Lum Avg [1]: 36.71%; Split Luciferase Assay %Lum Set 2 [1]: 42.65%; Split Luciferase Assay Z-score Set 1 [1]: -5.60; Split Luciferase Assay Z-score Set 2 [1]: -4.67; Z-score (LCA primary screening) [1]: −5.13; pIC50 [1]: 5.67; Luciferase Assay % Lum [2]: 79.36%; Luciferase Assay Z-score [2]: -2.64 |
| Nc1ncnc2c1c(-c1cnc3[nH]ccc3c1)nn2C1CCCC1 [PP121, reference compound] |  |  |  |  |  |  |  |  |  |  |  | Z-score (LCA primary screening) [1, 16]: −4.14; Split Luciferase Assay Z-score Set 1 [1, 10]: -4.89; Split Luciferase Assay % Lum Set 1 [1, 11]: 39.46%; Split Luciferase Assay Z-score Set 2 [1, 12]: -3.40; Split Luciferase Assay %Lum Set 2 [1, 13]: 58.26%; Split Luciferase Assay %Lum Avg [1, 14]: 48.86%; Z-score, full-length luciferase assay ([2]; 30 µM, 384-well plates, vs on-plate 0.3% DMSO): 3.11; Luciferase Assay % Lum (full-length luciferase counter-screen) [2, 15]: 124.27%; Luciferase Assay Z-score (full-length luciferase counter-screen) [2, 15]: 3.11; Toxicity Assay % Fluor (CTB cell viability fluorescence) (Clone V cells): 111.23%; Toxicity Assay Z-score (CTB cell viability) (Clone V cells): 1.57 |
| Cc1ccc(Nc2nccc(N(C)c3ccc4c(C)n(C)nc4c3)n2)cc1S(N)(=O)=O.Cl [Pazopanib hydrochloride] | 13.37% | 28.09% | -7.00 | -5.85 | 20.73% | 59.40% | -5.20 | 92.21% | -1.09 |  |  |  |
| OC[C@H]1O[C@@H](n2cnc3c2NC=NC[C@H]3O)C[C@@H]1O [Pentostatin] |  |  | 2.75 | 3.80 |  |  |  |  |  | 86.56% | -1.88 | Split Luciferase Assay % Lum Set 1 [1]: 134.04%; Split Luciferase Assay %Lum Avg [1]: 140.36%; Split Luciferase Assay %Lum Set 2 [1]: 146.68%; Luciferase Assay % Lum [2]: 97.96%; Luciferase Assay Z-score [2]: -0.26 |
